Experimental data: US20210045385A1, “PYRIDAZINONE-SUBSTITUTED KETOXIMES AS HERBICIDES” (FMC Corporation, priority 2018, published 2021)

Assays:
Assay type in all cases: in vivo
[1] = system: foxtail, giant (giant foxtail, Setaria faberii); assay: Test A preemergence, visual plant response rating; settings: for Foxtail, Giant plant response rating: preemergence, 0 to 100 scale, 0 no effect, 100 complete control; for Foxtail, Giant plant response rating (0 to 100 scale): approx. 10 days
Summary of the method: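 Ratings use a 0–100 visual scale (100 = complete control) against untreated controls, scored about 10 days after greenhouse treatment. Test chemicals were formulated in surfactant-containing non-phytotoxic solvent and applied either as soil spray after planting (preemergence) or onto one- to two-leaf, 2–10 cm plants (postemergence).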

[2] = system: Italian ryegrass (Lolium multiflorum); assay: Test A preemergence, visual plant response rating; settings: for Ryegrass, Italian plant response rating: preemergence, 0 to 100 scale, 0 no effect, 100 complete control; for Ryegrass, Italian plant response rating (0 to 100 scale): approx. 10 days
Summary of the method: (§1)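 Greenhouse pot test in loam–sand soil mix: compound in a surfactant-containing non-phytotoxic solvent applied preemergence (directed soil spray) or postemergence (one- to two-leaf plants, 2–10 cm). Injury scored visually after ~10 days, 0–100.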

[3] = system: barnyardgrass (Echinochloa crus-galli); assay: Test A preemergence, visual plant response rating; settings: for Barnyardgrass plant response rating: preemergence, 0 to 100 scale, 0 no effect, 100 complete control; for Barnyardgrass plant response rating (0 to 100 scale): approx. 10 days
Summary of the method: as §1

kochia (Kochia scoparia) [4] = assay: Test A preemergence, visual plant response rating; settings: for Kochia plant response rating: preemergence, 0 to 100 scale, 0 no effect, 100 complete control; for Kochia plant response rating (0 to 100 scale): approx. 10 days
Summary of the method: as §1

[5] = system: ragweed (common ragweed, Ambrosia elatior); assay: Test A preemergence, visual plant response rating; settings: for Ragweed plant response rating: preemergence, 0 to 100 scale, 0 no effect, 100 complete control; for Ragweed plant response rating (0 to 100 scale): approx. 10 days
Summary of the method: as §1

[6] = system: pigweed (Amaranthus retroflexus); assay: Test A preemergence, visual plant response rating; settings: for Pigweed plant response rating: preemergence, 0 to 100 scale, 0 no effect, 100 complete control; for Pigweed plant response rating (0 to 100 scale): approx. 10 days
Summary of the method: as §1

[7] = system: ducksalad (Heteranhera limosa); assay: Test B flooded paddy test, visual plant response rating; settings: 250 g ai/ha, Flood, applied to paddy water, 2-leaf stage, evaluated after 13 to 15 days
Description: (§2) Plant species in the flooded paddy test selected from rice (Oryza sativa), sedge, umbrella (small-flower umbrella sedge, Cyperus difformis), ducksalad (Heteranhera limosa), and barnyardgrass (Echinochloa crus-galli) were grown to the 2-leaf stage for testing. At time of treatment, test pots were flooded to 3 cm above the soil surface treated by application of test compounds directly to the paddy water, and then maintained at that water depth for the duration of the test. Treated plants and controls were maintained in a greenhouse for 13 to 15 days, after which time all species were compared to controls and visually evaluated. […] A dash (-) response means no test result.

[8] = system: barnyardgrass (Echinochloa crus-galli); assay: as above; settings: 250 g ai/ha, Flood, applied to paddy water, 2-leaf stage, evaluated after 13 to 15 days
Description: as §2

[9] = system: sedge, umbrella (small-flower umbrella sedge, Cyperus difformis); assay: as above; settings: 250 g ai/ha, Flood, applied to paddy water, 2-leaf stage, evaluated after 13 to 15 days
Description: as §2

rice (Oryza sativa) = assay: as above; settings: 250 g ai/ha, Flood, applied to paddy water, 2-leaf stage, evaluated after 13 to 15 days
Description: as §2

[10] = system: wheat (Triticum aestivum); assay: Test A postemergence, visual plant response rating; settings: for Wheat plant response rating: Postemergence, 125 g ai/ha, 0 to 100 scale (0 no effect, 100 complete control)
Description: (§3) Seeds of plant species selected from barnyardgrass (Echinochloa crus-galli), kochia (Kochia scoparia), ragweed (common ragweed, Ambrosia elatior), Italian ryegrass (Lolium multiflorum), foxtail, giant (giant foxtail, Setaria faberii), foxtail, green (green foxtail, Setaria viridis), and pigweed (Amaranthus retroflexus) were planted into a blend of loam soil and sand and treated preemergence with a directed soil spray using test chemicals formulated in a non-phytotoxic solvent mixture which included a surfactant.
(§4) At the same time, plants selected from these weed species and also wheat (Triticum aestivum), corn (Zea mays), blackgrass (Alopecurus myosuroides), and galium (catchweed bedstraw, Galium aparine) were planted in pots containing the same blend of loam soil and sand and treated with postemergence applications of test chemicals formulated in the same manner. Plants ranged in height from 2 to 10 cm and were in the one- to two-leaf stage for the postemergence treatment. Treated plants and untreated controls were maintained in a greenhouse for approximately 10 days, after which time all treated plants were compared to untreated controls and visually evaluated for injury. Plant response ratings, summarized in Table A, are based on a 0 to 100 scale where 0 is no effect and 100 is complete control. A dash (-) response means no test result.

[11] = system: foxtail, giant (giant foxtail, Setaria faberii); assay: Test A postemergence, visual plant response rating; settings: for Foxtail, Giant plant response rating: Postemergence, 125 g ai/ha, 0 to 100 scale (0 no effect, 100 complete control)
Description: as §3, §4

corn (Zea mays) = assay: Test A postemergence, visual plant response rating; settings: for Corn plant response rating: Postemergence, 125 g ai/ha, 0 to 100 scale (0 no effect, 100 complete control)
Description: as §3, §4

[12] = system: Italian ryegrass (Lolium multiflorum); assay: Test A postemergence, visual plant response rating; settings: for Ryegrass, Italian plant response rating: Postemergence, 125 g ai/ha, 0 to 100 scale (0 no effect, 100 complete control)
Description: as §3, §4

[13] = system: galium (catchweed bedstraw, Galium aparine); assay: Test A postemergence, visual plant response rating; settings: for Galium plant response rating: Postemergence, 125 g ai/ha, 0 to 100 scale (0 no effect, 100 complete control)
Description: as §3, §4

[14] = system: barnyardgrass (Echinochloa crus-galli); assay: Test A postemergence, visual plant response rating; settings: for Barnyardgrass plant response rating: Postemergence, 125 g ai/ha, 0 to 100 scale (0 no effect, 100 complete control)
Description: as §3, §4

kochia (Kochia scoparia) [15] = assay: Test A postemergence, visual plant response rating; settings: for Kochia plant response rating: Postemergence, 125 g ai/ha, 0 to 100 scale (0 no effect, 100 complete control)
Description: as §3, §4

[16] = system: ragweed (common ragweed, Ambrosia elatior); assay: Test A postemergence, visual plant response rating; settings: for Ragweed plant response rating: Postemergence, 125 g ai/ha, 0 to 100 scale (0 no effect, 100 complete control)
Description: as §3, §4

[17] = system: pigweed (Amaranthus retroflexus); assay: Test A postemergence, visual plant response rating; settings: for Pigweed plant response rating: Postemergence, 125 g ai/ha, 0 to 100 scale (0 no effect, 100 complete control)
Description: as §3, §4

[18] = system: blackgrass (Alopecurus myosuroides); assay: Test A postemergence, visual plant response rating; settings: for Blackgrass plant response rating: Postemergence, 125 g ai/ha, 0 to 100 scale (0 no effect, 100 complete control)
Description: as §3, §4

[19] = 1000 g ai/ha Postemergence, approx. 10 days
[20] = 500 g ai/ha, postemergence, 0 is no effect, 100 is complete control

Structure (SMILES) | Plant response rating, Ducksalad (0 to 100 scale, 0 is no effect, 100 is complete control) [7] | Plant response rating, Barnyardgrass (0 to 100 scale, 0 is no effect, 100 is complete control) [8] | Plant response rating, Sedge, Umbrella (0 to 100 scale, 0 is no effect, 100 is complete control) [9] | Plant response rating, Rice (0 to 100 scale, 0 is no effect, 100 is complete control) (rice (Oryza sativa)) | Foxtail, Giant plant response rating (0 to 100 scale) ([1]; 500 g ai/ha Preemergence) | Ryegrass, Italian plant response rating (0 to 100 scale) ([2]; 500 g ai/ha Preemergence) | Barnyardgrass plant response rating (0 to 100 scale) ([3]; 500 g ai/ha Preemergence) | Kochia plant response rating (0 to 100 scale) (kochia (Kochia scoparia) [4]; 500 g ai/ha Preemergence) | Ragweed plant response rating (0 to 100 scale) ([5]; 500 g ai/ha Preemergence) | Pigweed plant response rating (0 to 100 scale) ([6]; 500 g ai/ha Preemergence) | Wheat plant response rating (0 to 100 scale) [10, 20] | Wheat plant response rating [10] | Foxtail, Giant plant response rating (0 to 100 scale) [11, 20] | Foxtail, Giant plant response rating [11] | Corn plant response rating (0 to 100 scale) (corn (Zea mays); [20]) | Corn plant response rating (corn (Zea mays)) | Ryegrass, Italian plant response rating (0 to 100 scale) [12, 20] | Ryegrass, Italian plant response rating [12] | Galium plant response rating (0 to 100 scale) [13, 20] | Galium plant response rating [13] | also measured
CCON=C(c1cccc(C)c1)c1c(O)c(C)nn(C)c1=O (mixture of isomers) [Compound 6] | 0 | 0 | 0 | 0 | – | – | – | – | – | – | – | – | – | – | – | – | – | – | – | – | Foxtail, Giant plant response rating ([1]; 1000 g ai/ha): 30; Ryegrass, Italian plant response rating ([2]; 1000 g ai/ha): 80; Barnyardgrass plant response rating ([3]; 1000 g ai/ha): 30; Kochia plant response rating (kochia (Kochia scoparia) [4]; 1000 g ai/ha): 20; Ragweed plant response rating ([5]; 1000 g ai/ha): 50; Pigweed plant response rating ([6]; 1000 g ai/ha): 70; Wheat plant response rating (0 to 100 scale) [10, 19]: 0; Foxtail, Giant plant response rating (0 to 100 scale) [11, 19]: 50; Corn plant response rating (0 to 100 scale) (corn (Zea mays); [19]): 0; Ryegrass, Italian plant response rating (0 to 100 scale) [12, 19]: 70; Galium plant response rating (0 to 100 scale) [13, 19]: 90; Barnyardgrass plant response rating (0 to 100 scale) [14, 19]: 30; Kochia plant response rating (0 to 100 scale) (kochia (Kochia scoparia) [15]; [19]): 80; Ragweed plant response rating (0 to 100 scale) [16, 19]: 90; Pigweed plant response rating (0 to 100 scale) [17, 19]: 80; Blackgrass plant response rating (0 to 100 scale) [18, 19]: 10
CON=C(c1cccc(Cl)c1)c1c(O)c(C)nn(C2CC2)c1=O (mixture of isomers) [Compound 33] | 0 | 0 | 0 | 0 | 0 | 60 | 0 | 10 | 20 | 70 | 20 | 0 | 10 | 0 | 0 | 0 | 60 | 10 | 70 | 40 | Foxtail, Giant plant response rating (0 to 100 scale) ([1]; 125 g ai/ha Preemergence): 0; Ryegrass, Italian plant response rating (0 to 100 scale) ([2]; 125 g ai/ha Preemergence): 20; Barnyardgrass plant response rating (0 to 100 scale) ([3]; 125 g ai/ha Preemergence): 0; Kochia plant response rating (0 to 100 scale) (kochia (Kochia scoparia) [4]; 125 g ai/ha Preemergence): 0; Ragweed plant response rating (0 to 100 scale) ([5]; 125 g ai/ha Preemergence): 0; Pigweed plant response rating (0 to 100 scale) ([6]; 125 g ai/ha Preemergence): 0; Barnyardgrass plant response rating (0 to 100 scale) [14, 20]: 0; Barnyardgrass plant response rating [14]: 0; Kochia plant response rating (0 to 100 scale) (kochia (Kochia scoparia) [15]; [20]): 40; Kochia plant response rating (kochia (Kochia scoparia) [15]): 20; Ragweed plant response rating (0 to 100 scale) [16, 20]: 60; Ragweed plant response rating [16]: 10; Pigweed plant response rating (0 to 100 scale) [17, 20]: 30; Pigweed plant response rating [17]: 10; Blackgrass plant response rating (0 to 100 scale) [18, 20]: 0; Blackgrass plant response rating [18]: 0
C#CCON=C(c1c(O)c(C)nn(C)c1=O)c1cccc2ccccc12 (mixture of isomers) [Compound 118] | 55 | 0 | 35 | 0 | 100 | 100 | 100 | 60 | 100 | 100 | 90 | 40 | 90 | 80 | 70 | 30 | 100 | 90 | 100 | 90 | Foxtail, Giant plant response rating ([1]; 125 g ai/ha): 80; Ryegrass, Italian plant response rating ([2]; 125 g ai/ha): 100; Barnyardgrass plant response rating ([3]; 125 g ai/ha): 60; Kochia plant response rating (kochia (Kochia scoparia) [4]; 125 g ai/ha): 40; Ragweed plant response rating ([5]; 125 g ai/ha): 80; Pigweed plant response rating ([6]; 125 g ai/ha): 100; Barnyardgrass plant response rating (0 to 100 scale) [14, 20]: 90; Barnyardgrass plant response rating [14]: 90; Kochia plant response rating (0 to 100 scale) (kochia (Kochia scoparia) [15]; [20]): 100; Kochia plant response rating (kochia (Kochia scoparia) [15]): 70; Ragweed plant response rating (0 to 100 scale) [16, 20]: 90; Ragweed plant response rating [16]: 90; Pigweed plant response rating (0 to 100 scale) [17, 20]: 100; Pigweed plant response rating [17]: 100; Blackgrass plant response rating (0 to 100 scale) [18, 20]: 100; Blackgrass plant response rating [18]: 90
CON=C(c1cc(C)cs1)c1c(O)c(C)nn(C)c1=O (mixture of isomers) [Compound 133] | 0 | 0 | 0 | 0 | 0 | 0 | 0 | 20 | 40 | 0 | 0 | 0 | 10 | 0 | 0 | 0 | 0 | 0 | 60 | 20 | Foxtail, Giant plant response rating ([1]; 125 g ai/ha): 0; Ryegrass, Italian plant response rating ([2]; 125 g ai/ha): 0; Barnyardgrass plant response rating ([3]; 125 g ai/ha): 0; Kochia plant response rating (kochia (Kochia scoparia) [4]; 125 g ai/ha): 0; Ragweed plant response rating ([5]; 125 g ai/ha): 0; Pigweed plant response rating ([6]; 125 g ai/ha): 0; Barnyardgrass plant response rating (0 to 100 scale) [14, 20]: 0; Barnyardgrass plant response rating [14]: 0; Kochia plant response rating (0 to 100 scale) (kochia (Kochia scoparia) [15]; [20]): 60; Kochia plant response rating (kochia (Kochia scoparia) [15]): 20; Ragweed plant response rating (0 to 100 scale) [16, 20]: 30; Ragweed plant response rating [16]: 10; Pigweed plant response rating (0 to 100 scale) [17, 20]: 80; Pigweed plant response rating [17]: 50; Blackgrass plant response rating (0 to 100 scale) [18, 20]: 0; Blackgrass plant response rating [18]: 0
